28 molecules from patent US12377100B2 (GILEAD SCIENCES, INC., priority 2015, dated 2025) can be followed below.

As a reminder, the AC50 is the concentration at which the activity in the assay is half-maximal. Lower therefore signals greater potency.

What all share (format): cell-based
What all share (conditions): human PBMCs, 24 hours incubation

One test concerns IFNα. In words: PBMC cytokine profiling assay, IFNα induction. How it is done:
(§1) Certain compounds disclosed herein we tested according to the procedure described below. Additionally, certain reference compounds were prepared and tested along with the compounds of the present disclosure.
(§2) Compounds were dissolved and stored in DMSO (Sigma-Aldrich, St. Louis, MO) at 10 mM concentration.
(§3) Cryopreserved human PBMCs isolated from healthy donors were purchased from StemCell Technologies (Vancouver, Canada). Cell culture medium used was RPMI with L-Glutamine (Mediatech, Manassas, VA) supplemented with 10% fetal bovine serum (Hyclone, GE Healthcare, Logan, UT) and Penicillin-Streptomycin (Mediatech). Human TNFα, IL12p40, and IFNα2a 384-well Assay capture plates, standards, buffers and processing reagents were obtained from MesoScale Discovery Technologies (MSD; Rockville, MD).
(§4) Cryopreserved human PBMCs (1×10e8 cells/ml) were thawed at 37° C. and resuspended in 25 mL warm cell culture medium. The cells were pelleted at 200×g (Beckman Avanti J-E) for 5 min and resuspended in 20 mL of fresh culture media. Cells were counted using a Cellometer (Nexcelcom Bioscience), adjusted to 2×10e6 cells, and incubated for 2 hours in an incubator set at 37° C., 5% CO2 to recover from cryopreservation. Compounds were serially diluted in DMSO at half-log steps to generate a 10-point dose range. Using a Bravo pipette equipped with a 384 well head (Agilent), 0.4 μL of compound was transferred to each well of a 384 well black, clear bottom plate (Greiner Bio-One, Germany) containing 30 μL of cell culture medium. Recovered PBMCs were then dispensed into the assay plate at 50 μL per well (100k cells/well) using the MicroFlow multichannel dispenser (Biotek). Final DMSO concentration was 0.5%. DMSO was used as the negative control. The plates were incubated for 24 hours at 37° C. PBMCs in the assay plate were pelleted by centrifugation (Beckman Avanti J-E) at 200×g for 5 min.
(§5) Using a Biomek FX 384 well pipetting station (Beckman), conditioned culture medium (CCM) from the assay plate was transferred to MSD capture plates customized for each cytokine. For IFNα and IL12-p40 detection, 25 μL and 20 μL of CCM were added directly to each capture plate, respectively. For TNFα detection, CCM was diluted 1:9 in fresh culture medium, and 20 μL of diluted CCM was used. Serially diluted calibration standards for each cytokine were used to generate standard curves and establish assay linearity. The plates were sealed and incubated overnight at 4° C. in a plate shaker (Titer Plate) set at 200 rpm. On the following day, antibodies specific for each cytokine were diluted 1:50 in MSD Diluent 100 antibody dilution buffer. Diluted antibodies were added to corresponding capture plates at 10 μL/well, and incubated at RT for 1-2 hrs in the shaker. The plates were washed with PBST buffer (3×, 60 μl/well) using a Biotek Multiflow plate washer. MSD Read Buffer diluted to 2× in deionized water and 35 μL/well was added via Biomek FX instrument. The plates were read immediately in a MSD6000 reader. Data were normalized to positive and negative controls in each assay plate. AC50 values represent compound concentrations at half-maximal effect based on normalized percent activation and calculated by non-linear regression using Pipeline Pilot software (Accelrys, San Diego, CA).

The next test has as its system IL12p40. In words: PBMC cytokine profiling assay, IL12-p40 induction. Here is the method:
as §1, §2, §3, §4, §5

The next test deals with TNFα. In words: PBMC cytokine profiling assay, TNFα induction. How it is done:
as §1, §2, §3, §4, §5

Take `CC[C@H](C)[C@@H](CO)Nc1nc(N)nc2cccnc12` [Example 9, (2S,3S)-2-((2-aminopyrido[3,2-d]pyrimidin-4-yl)amino)-3-methylpentan-1-ol]: the concentration at half-maximal activity (AC50) is 7.2 µM in the test on IFNα (Homo sapiens, PBMC, 24 h); 1.1 µM in the test with IL12p40 (Homo sapiens, PBMC, 24 h); 1.9 µM in the test with TNFα (Homo sapiens, PBMC, 24 h).
Take `CCCC[C@H](CN)Nc1nc(N)nc2cccnc12` [Example 50, (R)—N^4-(1-aminohexan-2-yl)pyrido[3,2-d]pyrimidine-2,4-diamine]: the AC50 in the test with IFNα (Homo sapiens, PBMC, 24 h) was above 50 µM; with IL12p40 (Homo sapiens, PBMC, 24 h), 23.1 µM; in the test with TNFα (Homo sapiens, PBMC, 24 h) it was 26.9 µM.
For `CCCC[C@](C)(CNC(C)=O)Nc1nc(N)nc2cc(C)cnc12` [Example 66, (R)—N-(2-((2-amino-7-methylpyrido[3,2-d]pyrimidin-4-yl)amino)-2-methylhexyl)acetamide] the same measures were 1.6 µM, 0.03 µM and 0.04 µM.
For `CCCC[C@H](CO)Nc1nc(N)nc2ccc(C)nc12` [Example 39C, (R)-2-((2-amino-6-methylpyrido[3,2-d]pyrimidin-4-yl)amino)hexan-1-ol] the same measures were above 50 µM, 41.5 µM and above 50 µM.
With `CCCC[C@H](CO)Nc1nc(N)nc2cc(Br)cnc12` [Example 82, (R)-2-((2-amino-7-bromopyrido[3,2-d]pyrimidin-4-yl)amino)hexan-1-ol], the concentration at half-maximal activity (AC50) in the test with IFNα (Homo sapiens, PBMC, 24 h) was above 50 µM; with IL12p40 (Homo sapiens, PBMC, 24 h) it was 14.3 µM; with TNFα (Homo sapiens, PBMC, 24 h) it was 16.6 µM.
For `CCC[C@@H](CO)Nc1nc(N)nc2cccnc12` [Example 27C, (S)-2-((2-amino-[3,2-d]pyrimidin-4-yl)amino)pentan-1-ol] the same measures were 2 µM, 0.42 µM and 0.52 µM.
For `CCC[C@H](Nc1nc(N)nc2cccnc12)C(F)(F)F` [Example 28, (S)—N^4-(1,1,1-trifluoropentan-2-yl)pyrido[3,2-d]pyrimidine-2,4-diamine] the same measures were 45 µM, 28.2 µM and 28.6 µM.
For `CCC[C@H](Nc1nc(N)nc2cccnc12)C(=O)NC` [Example 31, (S)-2-((2-aminopyrido[3,2-d]pyrimidin-4-yl)amino)-N-methylpentanamide], the AC50 in the test on IFNα (Homo sapiens, PBMC, 24 h) came to 32.9 µM; with IL12p40 (Homo sapiens, PBMC, 24 h) it was 4.7 µM; in the test with TNFα (Homo sapiens, PBMC, 24 h) it was 4.7 µM.
Turning to `CCCC[C@H](CCO)Nc1nc(N)nc2cccnc12` [Example 100, (R)-3-((2-aminopyrido[3,2-d]pyrimidin-4-yl)amino)heptan-1-ol], the AC50 in the test with IFNα (Homo sapiens, PBMC, 24 h) was found to be 4.6 µM; in the test with IL12p40 (Homo sapiens, PBMC, 24 h) it was 3.5 µM; in the test with TNFα (Homo sapiens, PBMC, 24 h), 3.8 µM.
With `CCCC[C@H](CO)Nc1nc(N)nc2cc(F)cnc12` [Example 44, (R)-2-((2-amino-7-fluoropyrido[3,2-d]pyrimidin-4-yl)amino)hexan-1-ol], the AC50 with IFNα (Homo sapiens, PBMC, 24 h) was above 50 µM; in the test with IL12p40 (Homo sapiens, PBMC, 24 h), 2.4 µM; in the test with TNFα (Homo sapiens, PBMC, 24 h) it was 3 µM.
For `CCCCC[C@H](CO)Nc1nc(N)nc2cccnc12` [Example 75, (R)-2-((2-aminopyrido[3,2-d]pyrimidin-4-yl)amino)heptan-1-ol], the AC50 with IFNα (Homo sapiens, PBMC, 24 h) amounted to 20.3 µM; with IL12p40 (Homo sapiens, PBMC, 24 h), 3.3 µM; in the test on TNFα (Homo sapiens, PBMC, 24 h), 4 µM.
For `CCC[C@@H](CO)Nc1nc(N)nc2cc(F)cnc12` [Example 43C, (S)-2-((2-amino-7-fluoropyrido[3,2-d]pyrimidin-4-yl)amino)pentan-1-ol] the same measures were 10.9 µM, 1 µM and 1.1 µM.
For `CCCC[C@@H](Nc1nc(N)nc2cccnc12)C(O)C(F)F` (single isomer, unassigned) [Example 90] the same measures were 7.8 µM, 0.62 µM and 0.86 µM.
Turning to `COc1cnc2c(NC(C)(C)C)nc(N)nc2c1` [Example 113, N^4-(tert-butyl)-7-methoxypyrido[3,2-d]pyrimidine-2,4-diamine], the AC50 in the test with IFNα (Homo sapiens, PBMC, 24 h) is above 50 µM; in the test with IL12p40 (Homo sapiens, PBMC, 24 h) it was 13.6 µM; in the test with TNFα (Homo sapiens, PBMC, 24 h), 12.5 µM.
For `CCCCC(Nc1nc(N)nc2cccnc12)C(C)O` (stereo not drawn) [Example 104, 3-((2-aminopyrido[3,2-d]pyrimidin-4-yl)amino)heptan-2-ol], the values for the AC50 with IFNα, in the test with IL12p40 and with TNFα were 4.2 µM, 1.9 µM and 2.1 µM, respectively.
In the case of `C=CCC[C@](C)(CO)Nc1nc(N)nc2cc(F)cnc12` [Example 84, (R)-2-((2-amino-7-fluoropyrido[3,2-d]pyrimidin-4-yl)amino)-2-methylhex-5-en-1-ol], the half-maximal activity concentration (AC50) is above 50 µM with IFNα (Homo sapiens, PBMC, 24 h); 3.9 µM with IL12p40 (Homo sapiens, PBMC, 24 h); 3 µM in the test on TNFα (Homo sapiens, PBMC, 24 h).
Consider `Nc1nc(N[C@H](CO)CC2CC2)c2ncccc2n1` [Example 4B, (S)-2-((2-aminopyrido[3,2-d]pyrimidin-4-yl)amino)-3-cyclopropylpropan-1-ol], for which the AC50 was determined as 5.9 µM with IFNα (Homo sapiens, PBMC, 24 h); 5.4 µM in the test with IL12p40 (Homo sapiens, PBMC, 24 h); 9.1 µM in the test with TNFα (Homo sapiens, PBMC, 24 h).
Turning to `CCCCC[C@](C)(CO)Nc1nc(N)nc2cc(F)cnc12` [Example 111, (R)-2-((2-amino-7-fluoropyrido[3,2-d]pyrimidin-4-yl)amino)-2-methylheptan-1-ol], the half-maximal activity concentration (AC50) with IFNα was 19.8 µM; with IL12p40 (Homo sapiens, PBMC, 24 h), 0.47 µM; with TNFα (Homo sapiens, PBMC, 24 h) it was 0.61 µM.
With `CCC[C@@H](CO)Nc1nc(N)nc2c(Cl)cc(C)nc12` [Example 6B, (S)-2-((2-amino-8-chloro-6-methylpyrido[3,2-d]pyrimidin-4-yl)amino)pentan-1-ol], the AC50 was above 50 µM with IFNα (Homo sapiens, PBMC, 24 h); above 50 µM in the test with IL12p40 (Homo sapiens, PBMC, 24 h); above 50 µM in the test with TNFα (Homo sapiens, PBMC, 24 h).
In the case of `C=CCC[C@](C)(CO)Nc1nc(N)nc2cccnc12` [Example 83, (R)-2-((2-aminopyrido[3,2-d]pyrimidin-4-yl)amino)-2-methylhex-5-en-1-ol], the AC50 in the test on IFNα (Homo sapiens, PBMC, 24 h) was 43.1 µM; in the test with IL12p40 (Homo sapiens, PBMC, 24 h), 1.8 µM; in the test with TNFα (Homo sapiens, PBMC, 24 h) it was 1.7 µM.
For `CCC[C@H](Nc1nc(N)nc2cccnc12)C(=O)OC` [Example 5B, (S)-methyl 2-((2-aminopyrido[3,2-d]pyrimidin-4-yl)amino)pentanoate] the same measures were 41 µM, above 50 µM and above 50 µM.
Take `C=C(C)CC[C@H](CO)Nc1nc(N)nc2cccnc12` [Example 77, (R)-2-((2-aminopyrido[3,2-d]pyrimidin-4-yl)amino)-5-methylhex-5-en-1-ol]: the half-maximal activity concentration (AC50) was found to be 43.6 µM in the test on IFNα (Homo sapiens, PBMC, 24 h); 43.6 µM with IL12p40 (Homo sapiens, PBMC, 24 h); 43.6 µM in the test on TNFα (Homo sapiens, PBMC, 24 h).
On to `CCCC(C)Nc1nc(N)nc2cccnc12` (stereo not drawn) [Example 2B, N^4-(pentan-2-yl)pyrido[3,2-d]pyrimidine-2,4-diamine], for which the half-maximal activity concentration (AC50) in the test with IFNα (Homo sapiens, PBMC, 24 h) came out at 4.3 µM; in the test on IL12p40 (Homo sapiens, PBMC, 24 h) it was 2.8 µM; with TNFα (Homo sapiens, PBMC, 24 h), 5.4 µM.
In the case of `Nc1nc(N[C@@H](CO)CCCC(F)(F)F)c2ncccc2n1` [Example 99, (R)-2-((2-aminopyrido[3,2-d]pyrimidin-4-yl)amino)-6,6,6-trifluorohexan-1-ol], the AC50 is above 50 µM with IFNα (Homo sapiens, PBMC, 24 h); 3.6 µM in the test on IL12p40 (Homo sapiens, PBMC, 24 h); 3.4 µM in the test with TNFα (Homo sapiens, PBMC, 24 h).
For `CCCC[C@H](CO)Nc1nc(N)nc2cc(OCC)cnc12` [Example 106, (R)-2-((2-amino-7-ethoxypyrido[3,2-d]pyrimidin-4-yl)amino)hexan-1-ol] the same measures were above 50 µM, 10.2 µM and 13.8 µM.
For `C=CC[C@H](CO)Nc1nc(N)nc2cccnc12` [Example 108, (R)-2-((2-aminopyrido[3,2-d]pyrimidin-4-yl)amino)pent-4-en-1-ol] the same measures were above 50 µM, 22 µM and 38.7 µM.
Regarding `CCCC[C@@](C)(Nc1nc(N)nc2cccnc12)C(C)O` (single isomer, unassigned) [Example 96], the half-maximal activity concentration (AC50) with IFNα worked out at 2.8 µM; in the test on IL12p40, 1 µM; in the test on TNFα, 1.1 µM.
For `CCCCC[C@](C)(CO)Nc1nc(N)nc2cc(F)cnc12` [Example 112, (R)-2-((2-amino-7-fluoropyrido[3,2-d]pyrimidin-4-yl)amino)-2-methylheptan-1-ol] the same measures were above 50 µM, 0.33 µM and 0.36 µM.
